# Patent US8563683B2, “Synthetic lung surfactant and use thereof” (University of Rochester, priority 2006, dated 2013)
# Assays:
# [1] = Surface activity on pulsating bubble surfactometer (minimum surface tension); type: physicochemical; conditions: 37° C., 20 cycles/min, 50% area compression, lipid […] except SLM (1.0 mg/ml)
# Description: Surfactant compositions were formulated using various molar or wt ratios of lipid analogs or naturally occurring lipids, with the addition of native lung surface proteins or synthetic peptides, and optionally a saturated free fatty acid in the indicated wt percentage based on the total weight of the intermediate lipid formulation. Surfactant compositions were dispersed in 0.15M NaCl+2 mM CaCl2 and placed in a sample chamber mounted on the pulsator unit of a bubble surfactometer. All surfactants were studied at a lipid concentration of 2.5 mg/ml, and in addition a mixture of synthetic ester-linked phospholipids (SLM) plus Super Mini-B was studied at a lipid concentration of 1 mg/ml.
# A tiny air bubble was formed and pulsated between maximum and minimum radii of 0.55 and 0.4 mm, respectively, while the pressure drop across the air-water interface of the bubble was measured with a precision transducer. Surface tension was calculated from the measured pressure drop at minimum radius (0.4 mm) from the Laplace equation (Enhorning, “Pulsating Bubble Technique for Evaluation of Pulmonary Surfactant,” J Appl Physiol 43:198-203 (1977); Hall et al., “Approximations in the Measurement of Surface Tension with the Oscillating Bubble Surfactometer,” J Appl Physiol 75:468-477 (1993), each of which is hereby incorporated by reference in its entirety).
# The high surface activity of synthetic lung surfactants containing DEPN-8 or 9:1 DEPN-8:PG-A or 9:1 DEPN-8:PG-B plus 1.5% by weight of Mini-B, FK20, or F4K is shown in Table 1. Activity is also shown for mixtures containing two glycerophospholipids found in endogenous lung surfactant, 8:2 (molar ratio) dipalmitoyl phosphatidylcholine (DPPC) and palmitoyl-oleoyl phosphatidylglycerol (POPG), with or without added synthetic peptides. Also studied is a synthetic lipid mixture containing 16:10:6:1:2 (by weight) DPPC, palmitoyl-oleoyl-phosphatidylcholine (POPC), POPG, palmitoyl-oleoyl-phosphatidylethanolamine (POPE), and cholesterol combined with Super Mini B (SEQ ID NO: 13). The surface activity of DEPN-8+1.5% bovine SP-B/C (mixture of bovine surfactant proteins B/C purified on a column from extracted calf lung surfactant) is additionally shown as a positive control. As described in the preceding paragraph, the surface activity measurements in Table 1 were obtained with a pulsating bubble surfactometer in vitro. Measurements of surface activity on this instrument reflect the combined effects of adsorption and dynamic film compression at a cycling rate (20 cycles/min), temperature (37° C.), and area compression (50% compression from maximum to minimum area) relevant for the mammalian lungs in vivo (Notter, Lung Surfactants: Basic Science and Clinical Applications, Marcel Dekker, Inc, New York (2000); Enhorning, “Pulsating Bubble Technique for Evaluation of Pulmonary Surfactant,” J Appl Physiol 43:198-203 (1977); Notter et al., “Pulmonary Surfactant: Physical Chemistry, Physiology and Replacement,” Rev Chem Eng 13:1-118 (1997), each of which is hereby incorporated by reference in its entirety). Prior publications have shown that assessments of surface activity on the bubble apparatus correlate well with the physiological activity of exogenous surfactants in animal lungs (see Notter, Lung Surfactants: Basic Science and Clinical Applications, Marcel Dekker, Inc, New York (2000); Notter et al., “Pulmonary Surfactant: Physical Chemistry, Physiology and Replacement,” Rev Chem Eng 13:1-118 (1997); Holm et al., “Effects of Hemoglobin and Cell Membrane Lipids on Pulmonary Surfactant Activity,” J Appl Physiol 63:1434-1442 (1987), each of which is hereby incorporated by reference in its entirety). […] The activity of these surfactant formulations of the present invention also approached or exceeded the positive control DEPN-8+1.5% bovine SP-B/C. […]
# [2] = molecular target: DEPN-8; test: Plasmon resonance (Biacore 3000) binding of lipid liposomes to peptide film; conditions: DEPN-8 liposomes over peptide film on CM5 chip, 37° C.; read-out: dissociation constant KD (koff/kon)
# Description: (§1) Super Mini-B peptide was also characterized in terms of its binding (association) affinity for lipids by plasmon resonance using a Biacore 3000 system (Biacore, Uppsala, Sweden). Peptide self-films were chemically-linked using a CM5 sensor chip (BR-1000-14, research grade), and lipid liposomes in running buffer were flowed over the chip to determine the degree of specific lipid association with the peptide film at 37° C. The off and on rates and dissociation constant KD (KD=koff/kon) were calculated by BIAevaluation Software Version 4.1.
# [3] = molecular target: dipalmitoyl phosphatidylcholine (DPPC); test: as above; conditions: DPPC liposomes over peptide film on CM5 chip, 37° C.; read-out: dissociation constant KD (koff/kon)
# Description: as §1
Surface tension at minimum bubble radius at time 0.5 min ([1]; 0.5 min pulsation),Surface tension at minimum bubble radius at time 1 min ([1]; 1 min pulsation),Surface tension at minimum bubble radius at time 2 min ([1]; 2 min pulsation),Surface tension at minimum bubble radius at time 5 min ([1]; 5 min pulsation),Surface tension at minimum bubble radius at time 10 min ([1]; 10 min pulsation),Surface tension at minimum bubble radius at time 15 min ([1]; 15 min pulsation),Surface tension at minimum bubble radius at time […] ([1]; […] pulsation),Kd [2],Kd [3],Compound
27 ± 2 mN/m,21 ± 2 mN/m,14 ± 2 mN/m,6 ± 1 mN/m,2 ± 1 mN/m,<1 mN/m,32 ± 2 mN/m,–,–,"CCCCCCCCCCCCCCCCOCC(COP(=O)(O)CCC[N+](C)(C)C)OCCCCCCCCCCCCCCCC (racemic) [DEPN-8, [(±)-trimethyl(3-phosphonopropyl)ammonium, mono(2,3-bis(hexadecyloxy)propyl ester]]"
–,–,–,–,–,–,–,0.063 µM,0.769 µM,FPIPLPYCWLCRALIKRIQAMIPKGGRMLPQLVCRLVLRCS [Super Mini-B]
